Laboratory results taken from PubChem BioAssay (NCI).
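Protocol summary: plate cells (96-well), add compound at 5 concentrations, incubate 48 h, interpolate endpoints linearly. Here, GI50 denotes the concentration required for 50% inhibition of growth. TGI is the concentration that stops growth completely.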

What was measured:
Test in all cases: growth of human tumour cells (NCI), 48 h
NCI-H522 lung = test system: NCI-H522 lung
UACC-257 melanoma = test system: UACC-257 melanoma
MALME-3M melanoma = test system: MALME-3M melanoma
NCI-H226 lung = test system: NCI-H226 lung
LOX IMVI melanoma = test system: LOX IMVI melanoma
ACHN renal = test system: ACHN renal
MOLT-4 leukemia = test system: MOLT-4 leukemia
SF-295 CNS = test system: SF-295 CNS
HOP-92 NSCLC = test system: HOP-92 NSCLC
UACC-62 melanoma = test system: UACC-62 melanoma
SK-OV-3 ovarian = test system: SK-OV-3 ovarian
OVCAR-3 ovarian = test system: OVCAR-3 ovarian
OVCAR-4 ovarian = test system: OVCAR-4 ovarian
IGROV1 ovarian = test system: IGROV1 ovarian
NCI-H460 lung = test system: NCI-H460 lung
NCI-H23 lung = test system: NCI-H23 lung
SNB-19 CNS = test system: SNB-19 CNS
NCI/ADR-RES ovarian = test system: NCI/ADR-RES ovarian
CCRF-CEM leukemia = test system: CCRF-CEM leukemia

Structure (SMILES)	TGI (NCI-H522 lung) [µM]	TGI (UACC-257 melanoma) [µM]	TGI (MALME-3M melanoma) [µM]	TGI (NCI-H226 lung) [µM]	TGI (LOX IMVI melanoma) [µM]	TGI (ACHN renal) [µM]	TGI (MOLT-4 leukemia) [µM]	TGI (SF-295 CNS) [µM]	TGI (HOP-92 NSCLC) [µM]	TGI (UACC-62 melanoma) [µM]	TGI (SK-OV-3 ovarian) [µM]	TGI (OVCAR-3 ovarian) [µM]	TGI (OVCAR-4 ovarian) [µM]	TGI (IGROV1 ovarian) [µM]	TGI (NCI-H460 lung) [µM]	TGI (NCI-H23 lung) [µM]	TGI (SNB-19 CNS) [µM]	TGI (NCI/ADR-RES ovarian) [µM]	TGI (CCRF-CEM leukemia) [µM]	GI50 (UACC-62 melanoma) [µM]
COc1cc(-c2cc(=O)c3c(OC)c(OC)c(OC)cc3o2)c(OC)c(OC)c1OC	> 75	> 75	> 75	> 75	> 75	> 75	> 75	> 75	> 75	> 75	> 75	> 75	> 75	> 75	> 75	> 75	> 75	> 75	> 75	
CCCCCCNC(=O)c1cc(CCc2cc(O)ccc2O)ccc1O	3.05	6.26	6.47	19.8	19.3	7.68	> 24.5	31.3	3.87	10.1	25	5.94	6.75	5.66	27.4	28.5	> 50.6	> 67.7	> 100	3.26
O=c1[nH]c2ccc(Cl)cc2c2oc(-c3ccccc3)nc12	32.3	> 100	78	42.3	> 100	51.3	> 100	46.6	52.2	> 100	44.1	46.6	35.4	> 100	36.9	74.9	43.1	86.6	> 100	
CC(=O)NNc1nc(C)c(C(/C=C/c2ccc([N+](=O)[O-])cc2)=N/N)s1	> 100	> 100	> 100	> 100	> 100	> 100	> 100	> 100	> 100	> 100	> 100	> 100	> 100	> 100	> 100	> 100	> 100	> 100	> 100	
O=C(N/N=C(/COc1ccc(Cl)cc1)N=Cc1cccnc1)c1ccncc1	66.7	> 100	> 100	> 100	> 100	> 100	> 100	> 100	84.5	> 100	> 100	> 100	> 100	> 100	> 100	> 100	> 100	> 100	> 100	
COc1ccc(/C=C/c2sc3ccccc3[n+]2CCCCI)cc1OC	> 10	> 10	> 10	> 10	> 10	> 10	> 10	> 10	> 10	> 10	> 10	> 10	> 10	> 10	> 10	> 10	> 10	> 10	> 10	
Nc1cc2c(nnn2C2OC(COCc3ccccc3)C(OCc3ccccc3)C2OCc2ccccc2)c(=O)[nH]1 (configuration not stated)	> 100	58.6	> 100	53.7	53.2	> 100	38.9	> 100	> 100	38.1	> 100	> 100	> 100	> 100	92.3	> 100	> 100	> 100	> 100	
CN(C)Cc1cc(N=Nc2cccc(Cl)c2)ccc1O	23.9	29.3	31.6	50.7	16.6	13.5	32.5	27.8	41	13.1	37.9	28.9	34.7	27.1	26.4	57.9	51.3	22.4	36.3	
O=C(c1ccco1)N(Cc1ccco1)C(=S)Nc1ccccc1	37.7	57.6	44.2	> 100	27.1	40.8	27.6	> 84.1	30.3	37.1	> 100	59.7	68.1	42.2	99.8	38.1	> 100	55.3	18.7	
O=S(=O)(N/N=C1\CC2CCC1C2)c1ccccc1 (configuration not stated)	> 100	> 100	> 100	> 100	> 100	> 100	> 100	> 100	> 100	> 100	> 100	> 100	> 100	> 100	> 100	> 100	> 100	> 100	> 100	
Cc1cc(NS(=O)(=O)c2ccc(NC(=O)c3ccc4[nH]c5ccccc5c(=O)c4c3)cc2)no1	> 100	> 100	> 100	> 100	> 100	> 100	> 100	> 100	> 100	> 100	> 100	> 100	> 100	> 100	> 100	> 100	> 100	> 100	> 100	
CC(=O)c1c(SCCN2CCCC2)n(-c2ccccc2)c(=S)n(-c2ccccc2)c1=O	8.31	9.17	12.2	54.1	9.04	3.46	> 23.4	> 100	18.2	20	> 100	7.22	> 90.7	19.4	> 46.6	37.4	> 77.1	> 85.2	4.01	
O=Cc1c2ccccc2n2ccc3c4ccccc4[nH]c3c12	> 10	> 10	> 10	> 10	> 10	> 10	> 10	> 10	> 10	> 10	> 10	> 10	> 10	> 10	> 10	> 10	> 10	> 10	> 10	
O=C1CS(=O)(=O)C(c2cccc(Oc3ccccc3)c2)N1c1cccc(Cl)c1 (configuration not stated)	45.2	46.4	52.6	> 100	32.1	59.5	58.1	> 100	40.5	29.4	> 100	95.1	> 100	69.9	41.3	> 100	> 100	> 100	> 100	
